Results taken from patent publication US20260248768A1, “MYC PROGRAM AS A MARKER OF RESPONSE TO ENZALUTAMIDE IN PROSTATE CANCER” (Rutgers, The State University of New Jersey, priority 2022, published 2026).

Tests used:
Assay type in all cases: cell-based
MYC = test: Doxycycline-inducible shRNA knockdown of NME2, MYC expression by Western blot; details: C4-2B cells; 0-2000 ng/mL doxycycline for 96 hours; Western blot (FIG. 15)
Protocol: Finally, C4-2B cells expressing doxycycline-inducible shRNA targeting NME2 were generated using the targeting sequence […] (SEQ ID NO: 9). Cells were treated with 0-2000 ng/mL doxycycline for 96 hours and NME2 and MYC expression were evaluated by Western blot.

C42B cells = test: Dose-response cell viability assay in C42B cells; details: both Enzalutamide-naïve and Enzalutamide-resistant conditions, dose-dependent manner (FIG. 13A)
Protocol: (§1) FIGS. 13A-13F show MYC targeting is beneficial for patients in Enzalutamide-resistant conditions. (FIG. 13A) Drug sensitivity curves of Enzalutamide-naïve, or Enzalutamide-resistant (EnzaRes) C42B cells treated with MYCi975. (FIG. 13B) Colony formation assay using Enzalutamide-resistant (EnzaRes) C42B cells in Intact (treated with DMSO), treated with Enzalutamide (10 μM), MYCi975 (2 μM), or a combination of Enzalutamide+MYCi975 (10 μM+2 μM). Cells were grown in the presence of respective drugs. Representative images are shown. P-value was estimated using a one-tailed Welch t-test. (FIG. 13C) Boyden chamber-based in vitro migration assay using Enzalutamide-resistant (EnzaRes) C42B cells in Intact (treated with DMSO), treated with Enzalutamide (10 μM), MYCi975 (2 μM), or a combination of Enzalutamide+MYCi975 (10 μM+2 μM). Bars represent the quantification of Crystal Violet trapped by migrated cells. P-value was estimated using a one-tailed Welch t-test. (FIG. 13D) Expression of NME2 in Intact and Enzalutamide-resistant (EnzaRes) C42B cells, using the qRT-PCR. P-value was estimated using the one-tailed Welch t-test. […] Bars represent the quantification of Crystal Violet trapped by migrated cells. * p-value <0.05, ** p-value≤0.01, *** p-value≤0.001 […]

C42B-EnzaRes cells [1] = test: Boyden chamber-based in vitro migration assay; details: MYCi975 2 μM, Enzalutamide 10 μM, vs Intact (DMSO)
Protocol: FIGS. 13A-13F show MYC targeting is beneficial for patients in Enzalutamide-resistant conditions. (FIG. 13A) Drug sensitivity curves of Enzalutamide-naïve, or Enzalutamide-resistant (EnzaRes) C42B cells treated with MYCi975. (FIG. 13B) Colony formation assay using Enzalutamide-resistant (EnzaRes) C42B cells in Intact (treated with DMSO), treated with Enzalutamide (10 μM), MYCi975 (2 μM), or a combination of Enzalutamide+MYCi975 (10 μM+2 μM). Cells were grown in the presence of respective drugs. Representative images are shown. P-value was estimated using a one-tailed Welch t-test. (FIG. 13C) Boyden chamber-based in vitro migration assay using Enzalutamide-resistant (EnzaRes) C42B cells in Intact (treated with DMSO), treated with Enzalutamide (10 μM), MYCi975 (2 μM), or a combination of Enzalutamide+MYCi975 (10 μM+2 μM). Bars represent the quantification of Crystal Violet trapped by migrated cells. P-value was estimated using a one-tailed Welch t-test. (FIG. 13D) Expression of NME2 in Intact and Enzalutamide-resistant (EnzaRes) C42B cells, using the qRT-PCR. P-value was estimated using the one-tailed Welch t-test. […] Bars represent the quantification of Crystal Violet trapped by migrated cells. * p-value <0.05, ** p-value≤0.01, *** p-value≤0.001

LNCaP cells = test: Dose-response cell viability assay in LNCaP cells; details: both Enzalutamide-naïve and Enzalutamide-resistant conditions, dose-dependent manner (FIG. 14A)
Protocol: (§2) FIGS. 14A and 14B show MYC inhibition reduces viability and colony formation in Enzalutamide resistant conditions. (FIG. 14A) Drug response curves of Enzalutamide naïve LNCaP or Enzalutamide-resistant LNCaP cells treated with Enzalutamide and/or MYC-i975. (FIG. 14B) Colony formation assay using Enzalutamide-resistant LNCaP cells t (LNCaP-Enza-Res) in intact (treated with DMSO), treated with enzalutamide (10 μM), MYC-i975 (2 μM), or a combination of Enzalutamide+MYC-i975 (10 μM+2 μM). Cells were grown in the presence of respective drugs. Bars represent quantification of Crystal Violet trapped by migrated cells. P-value is estimated utilizing one-tailed Welch t-test. * p<0.05, *** p≤0.001.
(§3) Generation of Enzalutamide-resistant cell lines: LNCaP (clone FDG) and C42B cells were purchased from ATCC and were grown in RPMI1640 media (GIBCO #11875093) supplemented with 10% Fetal Bovine Serum (FBS, Corning Cat #35-011-CV) and maintained at […] in and 5% CO2. Enzalutamide powder was purchased from Sellekchem (cat #S1250) and re-suspended in DMSO. Cells were plated in 6 well plates and treated either with DMSO, or with Enzalutamide (20 μM), refreshed every 4 days for up to 3 months until the resistance emerged. RNA from cells was extracted on indicated days using the methods described below. […]

LNCaP-EnzaRes cells = test: Colony formation assay, Enzalutamide-resistant LNCaP cells; details: MYCi975 2 μM, Enzalutamide 10 μM, compared to Intact (DMSO)
Protocol: as §2, §3

C42B-EnzaRes cells [2] = test: Colony formation assay, Enzalutamide-resistant C42B cells; details: MYCi975 2 μM, Enzalutamide 10 μM, compared to Intact (DMSO)
Protocol: as §1

Row | Compound | MYC expression (MYC) | cell viability (C42B cells) | cell migration (C42B-EnzaRes cells [1]) | cell viability (LNCaP cells) | colony formation (LNCaP-EnzaRes cells) | colony formation (C42B-EnzaRes cells [2])
1 | shRNA targeting NME2: doxycycline-inducible shRNA targeting NME2, targeting sequence GAAATCAGCCTATGGTTTAAG | suppresses MYC expression |  |  |  |  | 
2 | Cn1nc(C(F)(F)F)cc1-c1ccc(OCc2ccc(Cl)cc2)c(-c2ccc(Cl)c(C(F)(F)F)c2)c1O [MYCi975] |  | striking reduction of the cell viability | significant reduction in cell migration | striking reduction of the cell viability | reduced the colony formation | reduced the colony formation
